Assay results from US12565501B2, “Muscarinic acetylcholine M1 receptor antagonists” (Contineum Therapeutics, Inc., priority 2019, dated 2026).
Where a name gives a salt, the structure may show the parent alone. Read-outs that look alike come from different tables or passages of the source.

Molecular target: T1, human M1 receptor (Homo sapiens, UniProt P11229)
T1 sequence (P11229 1-460): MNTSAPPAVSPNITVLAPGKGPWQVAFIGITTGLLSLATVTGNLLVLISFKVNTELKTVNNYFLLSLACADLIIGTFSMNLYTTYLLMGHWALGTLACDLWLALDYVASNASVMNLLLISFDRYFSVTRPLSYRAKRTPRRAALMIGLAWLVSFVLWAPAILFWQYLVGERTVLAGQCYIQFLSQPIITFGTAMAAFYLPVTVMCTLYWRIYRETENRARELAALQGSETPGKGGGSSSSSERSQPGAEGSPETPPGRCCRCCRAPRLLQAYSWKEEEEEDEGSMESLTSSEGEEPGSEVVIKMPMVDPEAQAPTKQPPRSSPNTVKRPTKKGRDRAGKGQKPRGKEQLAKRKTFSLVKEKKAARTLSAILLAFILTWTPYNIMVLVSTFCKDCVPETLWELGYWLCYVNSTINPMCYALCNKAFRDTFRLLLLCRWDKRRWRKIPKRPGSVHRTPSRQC
Assay: In vitro functional assay of muscarinic acetylcholine receptor activity (aequorin calcium flux, reversal of EC80 acetylcholine response)
Format: cell-based
Details: acetylcholine at EC80, calcium flux (luminescence)
Summary of the method: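 CHO-K1 cells expressing human M1 and aequorin, loaded with 5 μM coelenterazine for 4 h, preincubated with compound 30 min at room temperature, then challenged with EC80 acetylcholine.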

[1] = CHO-K1 cells stably expressing human M1 receptor with aequorin, read-out: M1 IC50

Row | Structure (SMILES) | IC50 [1] [µM] | IC50 (M1 IC50, CHO-K1 cells stably expressing human M1 receptor with aequorin) [µM]
1 | N#Cc1ccc(N2C3CCC2CN(C(=O)COC2(c4ncccn4)CCC2)C3)nc1 [Example 273, 6-(3-(2-(1-(pyrimidin-2-yl)cyclobutoxy)acetyl)-3,8-diazabicyclo[3.2.1]octan-8-yl)nicotinonitrile] | 0.1 to 1 | –
2 | N#Cc1ccc(N2C3CCC2CN(C(=O)COC2(c4cccnn4)CCC2)C3)nc1 [Example 274, 6-(3-(2-(1-(pyridazin-3-yl)cyclobutoxy)acetyl)-3,8-diazabicyclo[3.2.1]octan-8-yl)nicotinonitrile] | 0.01 to 0.1 | –
3 | COc1cc(C2(OCC(=O)N3CC4CCC(C3)N4c3ccc(C#N)cn3)CCC2)cnn1 [Example 275, 6-(3-(2-(1-(6-methoxypyridazin-4-yl)cyclobutoxy)acetyl)-3,8-diazabicyclo[3.2.1]octan-8-yl)nicotinonitrile] | 0.01 to 0.1 | –
4 | N#Cc1ccc(N2C3CCC2CN(C(=O)COCC(F)(F)c2cccc4ncccc24)C3)nc1 [Example 276, 6-(3-(2-(2,2-difluoro-2-(quinolin-5-yl)ethoxy)acetyl)-3,8-diazabicyclo[3.2.1]octan-8-yl)nicotinonitrile] | < 0.01 | –
5 | COc1cc(C(F)(F)COCC(=O)N2CC3CCC(C2)N3c2ccc(C#N)cn2)ccn1 [Example 277, 6-(3-(2-(2,2-difluoro-2-(2-methoxypyridin-4-yl)ethoxy)acetyl)-3,8-diazabicyclo[3.2.1]octan-8-yl)nicotinonitrile] | 0.1 to 1 | –
6 | N#Cc1ccc(N2C3CCC2CN(C(=O)COCC(F)(F)c2cccn4ncnc24)C3)nc1 [Example 278, 6-(3-(2-(2-([1,2,4]triazolo[1,5-a]pyridin-8-yl)-2,2-difluoroethoxy)acetyl)-3,8-diazabicyclo[3.2.1]octan-8-yl)nicotinonitrile] | < 0.01 | –
7 | N#Cc1ccc(N2C3COCC2CN(C(=O)COC2(c4ccc(F)c(F)c4)CC2)C3)nc1 [Example 279, 6-(7-(2-(1-(3,4-difluorophenyl)cyclopropoxy)acetyl)-3-oxa-7,9-diazabicyclo[3.3.1]nonan-9-yl)nicotinonitrile] | 1 to 10 | –
8 | N#Cc1ccc(N2C3CCC2CN(C(=O)COC2(c4ccc(F)c(F)c4)CC2)C3)nn1 [Example 280, 6-(3-(2-(1-(3,4-difluorophenyl)cyclopropoxy)acetyl)-3,8-diazabicyclo[3.2.1]octan-8-yl)pyridazine-3-carbonitrile] | 0.1 to 1 | –
9 | COc1cncc(C2(OCC(=O)N3CC4CCC(C3)N4c3ccnc(C#N)c3)CCC2)c1 [Example 281, 4-(3-(2-(1-(5-methoxypyridin-3-yl)cyclobutoxy)acetyl)-3,8-diazabicyclo[3.2.1]octan-8-yl)picolinonitrile] | < 0.01 | –
10 | N#Cc1cc(N2C3CCC2CN(C(=O)COC2(c4ccncc4F)CCC2)C3)ccn1 [Example 282, 4-(3-(2-(1-(3-fluoropyridin-4-yl)cyclobutoxy)acetyl)-3,8-diazabicyclo[3.2.1]octan-8-yl)picolinonitrile] | 0.01 to 0.1 | –
11 | N#Cc1ccc(N2C[C@@H]3CC[C@H]2CN3C(=O)COC2(c3ccc(F)c(F)c3)CC2)nc1 [Example 283, 6-((1S,4S)-5-(2-(1-(3,4-difluorophenyl)cyclopropoxy)acetyl)-2,5-diazabicyclo[2.2.2]octan-2-yl)nicotinonitrile] | 0.1 to 1 | –
12 | N#Cc1ccc(N2[C@@H]3C[C@H]2CN(C(=O)COC2(c4ccc(F)c(F)c4)CC2)C3)nc1 [Example 284, 6-(3-(2-(1-(3,4-difluorophenyl)cyclopropoxy)acetyl)-3,6-diazabicyclo[3.1.1]heptan-6-yl)nicotinonitrile] | 1 to 10 | –
13 | N#Cc1ccc(N2C[C@H]3C[C@@H]2CN3C(=O)COC2(c3ccc(F)c(F)c3)CC2)nc1 [Example 285, 6-((1R,4R)-5-(2-(1-(3,4-difluorophenyl)cyclopropoxy)acetyl)-2,5-diazabicyclo[2.2.1]heptan-2-yl)nicotinonitrile] | > 1 | –
14 | N#Cc1ccc(N2C[C@H]3CC[C@@H]2CN3C(=O)COC2(c3ccc(F)c(F)c3)CC2)nc1 [Example 286, 6-((1R,4R)-5-(2-(1-(3,4-difluorophenyl)cyclopropoxy)acetyl)-2,5-diazabicyclo[2.2.2]octan-2-yl)nicotinonitrile] | > 1 | –
15 | N#Cc1ccc(N2C[C@@H]3C[C@H]2CN3C(=O)COC2(c3ccc(F)c(F)c3)CC2)nc1 [Example 287, 6-((1S,4S)-5-(2-(1-(3,4-difluorophenyl)cyclopropoxy)acetyl)-2,5-diazabicyclo[2.2.1]heptan-2-yl)nicotinonitrile] | 1 to 10 | –
16 | N#Cc1ccc(N2C3CCC2CN(C(=O)CCNC2(c4ccc(F)c(C#N)c4)CC2)C3)nc1 [Example 288, 6-(3-(3-((1-(3-cyano-4-fluorophenyl)cyclopropyl)amino)propanoyl)-3,8-diazabicyclo[3.2.1]octan-8-yl)nicotinonitrile formic acid Salt] | – | 0.01 to 0.1

Row | Structure (SMILES) | IC50 [1] [µM] | IC50 (M1 IC50, CHO-K1 cells stably expressing human M1 receptor with aequorin) [µM]
17 | N#Cc1ccc(N2C3CCC2CN(C(=O)CCNC2(c4cc(Cl)cc(C#N)c4)CC2)C3)nc1 [Example 289, 6-(3-(3-((1-(3-chloro-5-cyanophenyl)cyclopropyl)amino)propanoyl)-3,8-diazabicyclo[3.2.1]octan-8-yl)nicotinonitrile] | 0.1 to 1 | –
18 | N#Cc1ccc(N2C3CCC2CN(C(=O)COC2(c4cccc(C#N)c4F)CC2)C3)nc1 [Example 290, 6-(3-(2-(1-(3-cyano-2-fluorophenyl)cyclopropoxy)acetyl)-3,8-diazabicyclo[3.2.1]octan-8-yl)nicotinonitrile] | 1 to 10 | –
19 | N#Cc1ccc(N2C3CCC2CN(C(=O)COC2(c4ccc(F)c(C#N)c4)CC2)C3)nc1 [Example 291, 6-(3-(2-(1-(3-cyano-4-fluorophenyl)cyclopropoxy)acetyl)-3,8-diazabicyclo[3.2.1]octan-8-yl)nicotinonitrile] | 0.1 to 1 | –
20 | N#Cc1ccc(N2C3CCC2CN(C(=O)COC2(c4cc(F)cc(C#N)c4)CC2)C3)nc1 [Example 292, 6-(3-(2-(1-(3-cyano-5-fluorophenyl)cyclopropoxy)acetyl)-3,8-diazabicyclo[3.2.1]octan-8-yl)nicotinonitrile] | 0.1 to 1 | –
21 | COc1ccc(C#N)c(C2(OCC(=O)N3CC4CCC(C3)N4c3ccc(C#N)cn3)CC2)c1 [Example 293, 6-(3-(2-(1-(2-cyano-5-methoxyphenyl)cyclopropoxy)acetyl)-3,8-diazabicyclo[3.2.1]octan-8-yl)nicotinonitrile] | < 0.01 | –
22 | N#Cc1ccc(N2C3CCC2CN(C(=O)COC2(c4ccccc4C#N)CC2)C3)nc1 [Example 294, 6-(3-(2-(1-(2-cyanophenyl)cyclopropoxy)acetyl)-3,8-diazabicyclo[3.2.1]octan-8-yl)nicotinonitrile] | 0.1 to 1 | –
23 | N#Cc1ccc(N2C3CCC2CN(C(=O)COC2(c4cccc(C#N)c4)CC2)C3)nc1 [Example 295, 6-(3-(2-(1-(3-cyanophenyl)cyclopropoxy)acetyl)-3,8-diazabicyclo[3.2.1]octan-8-yl)nicotinonitrile] | 0.1 to 1 | –
24 | N#Cc1ccc(C2(OCC(=O)N3CC4CCC(C3)N4c3ccc(C#N)cn3)CC2)cc1 [Example 296, 6-(3-(2-(1-(4-cyanophenyl)cyclopropoxy)acetyl)-3,8-diazabicyclo[3.2.1]octan-8-yl)nicotinonitrile] | 1 to 10 | –
25 | N#Cc1ccc(N2C3CCC2CN(C(=O)COC2(c4ccc(F)cc4C#N)CC2)C3)nc1 [Example 297, 6-(3-(2-(1-(2-cyano-4-fluorophenyl)cyclopropoxy)acetyl)-3,8-diazabicyclo[3.2.1]octan-8-yl)nicotinonitrile] | 0.01 to 0.1 | –
26 | N#Cc1ccc(N2C3CCC2CN(C(=O)COC2(c4cc(F)ccc4C#N)CC2)C3)nc1 [Example 298, 6-(3-(2-(1-(2-cyano-5-fluorophenyl)cyclopropoxy)acetyl)-3,8-diazabicyclo[3.2.1]octan-8-yl)nicotinonitrile] | 0.1 to 1 | –
27 | Cn1c(C2(OCC(=O)N3CC4CCC(C3)N4c3ccc(C#N)cn3)CCC2)cccc1=O [Example 299, 6-(3-(2-(1-(1-methyl-6-oxo-1,6-dihydropyridin-2-yl)cyclobutoxy)acetyl)-3,8-diazabicyclo[3.2.1]octan-8-yl)nicotinonitrile] | 0.01 to 0.1 | –
28 | Cn1ccc(C2(OCC(=O)N3CC4CCC(C3)N4c3ccc(C#N)cn3)CCC2)cc1=O [Example 300, 6-(3-(2-(1-(1-methyl-2-oxo-1,2-dihydropyridm-4-yl)cyclobutoxy)acetyl)-3,8-diazabicyclo[3.2.1]octan-8-yl)nicotinonitrile] | 0.01 to 0.1 | –
29 | Cn1ccc(=O)c(C2(OCC(=O)N3CC4CCC(C3)N4c3ccc(C#N)cn3)CC2)c1 [Example 302, 6-(3-(2-(1-(1-methyl-4-oxo-1,4-dihydropyridin-3-yl)cyclopropoxy)acetyl)-3,8-diazabicyclo[3.2.1]octan-8-yl)nicotinonitrile] | > 1 | –
30 | N#Cc1ccc(N2C3CCC2CN(C(=O)CCOC2(c4ccc(F)c(F)c4)CCC2)C3)nc1 [Example 303, 6-(3-(3-(1-(3,4-difluorophenyl)cyclobutoxy)propanoyl)-3,8-diazabicyclo[3.2.1]octan-8-yl)nicotinonitrile] | < 0.01 | –
31 | C[C@H](OCCC(=O)N1CC2CCC(C1)N2c1ccc(C#N)cn1)c1ccccc1 [Example 305, 6-(3-(3-((S)-1-phenylethoxy)propanoyl)-3,8-diazabicyclo[3.2.1]octan-8-yl)nicotinonitrile] | 0.1 to 1 | –
